From patent US8507527B2, “Method for stabilizing anti-dementia drug” (EISAI R & D Management Co., Ltd., priority 2004, dated 2013)

Experiment: pH of aqueous solutions or suspensions of additives, polymers and donepezil hydrochloride
Type: physicochemical
Conditions: for pH OF ADDITIVES (2.5% AQUEOUS SOLUTIONS OR SUSPENSIONS): additive of the example alone, dissolved or suspended in purified water at 2.5%

Molecule	pH OF ADDITIVES (2.5% AQUEOUS SOLUTIONS OR SUSPENSIONS)	pH (2.5% aqueous solution or suspension)
O=C1O[C@H]([C@@H](O)CO)C(O)=C1O [ASCORBIC ACID, ascorbic acid]	2.6	–
N[C@@H](CC(=O)O)C(=O)O [ASPARTIC ACID, aspartic acid]	3.0	–
O=C(O)CC(O)(CC(=O)O)C(=O)O [CITRIC ACID, citric acid]	2.0	–
Cl.N[C@@H](CS)C(=O)O [CYSTEINE HYDROCHLORIDE, cysteine hydrochloride]	1.5	–
N[C@@H](CS)C(=O)O [CYSTEINE, cysteine]	5.1	–
O=C([O-])CC(O)(CC(=O)[O-])C(=O)O.[Na+].[Na+] [DISODIUM CITRATE, disodium citrate]	5.2	–
O=C([O-])CN(CCN(CC(=O)[O-])CC(=O)O)CC(=O)O.[Na+].[Na+] [DISODIUM EDETATE, disodium edetate]	4.5	–
OC[C@H]1O[C@@H](O[C@H]2[C@H](O)[C@@H](O)C(O)O[C@@H]2CO)[C@H](O)[C@@H](O)[C@H]1O (some centres unmarked) [FlowLac100, LACTOSE]	–	5.5
NCC(=O)O [GLYCINE, glycine]	6.2	–
CSCC[C@H](N)C(=O)O [METHIONINE, methionine]	5.9	–
O=C1O[C@H]([C@@H](O)CO)C([O-])=C1O.[Na+] [SODIUM ASCORBATE, sodium ascorbate]	7.5	–
N[C@@H](CC(=O)[O-])C(=O)[O-].[Na+].[Na+] [SODIUM ASPARTATE, sodium aspartate]	6.8	–
O=C([O-])CC(O)(CC(=O)[O-])C(=O)[O-].[Na+].[Na+].[Na+] [SODIUM CITRATE, sodium citrate]	8.3	–
sodium dihydrogen citrate [SODIUM […]]	3.7	–
